pIC50: −log10 of the molar value. Converted amounts (≈) assume the structure as drawn.
Experiments:
Enterobacter cloacae = test: MIC assay, Enterobacter cloacae (CL); format: cell-based; conditions: OD 595 nm after 18 hours
Protocol: (§1) Compounds were prepared to a concentration of 10 mM in 100% DMSO. These were then diluted to 200 μM with 50 mM tris. A 2% DMSO solution was prepared in 50 mM tris as well as a 20 μM solution of rifampicin in 2% DMSO with 50 mM tris. With each compound and control, one to one dilutions were made in a serial dilution fashion across microtiter plates with 50 mM tris. The highest concentration was 200 μM for each compound and 20 μM for rifampicin. The lowest concentrations were 1.562 μM and 0.156 μM for the compounds and rifampicin respectively.
(§2) S. aureus, E. coli, Psuedomonas aeruginosa, Enterobacter cloacae, and Enterococcus faecium cells had been grown up in a shake culture overnight at 37° C. in LB medium. These were diluted 500 fold and added to the compounds at an equal volume. The highest compound concentration was now 100 μM, and 10 μM for rifampicin. Baseline O.D. readings were taken at 595 nm utilizing a Bio-Rad 3550-UV plate reader. A second reading was taken after 18 hours.

S. aureus = test: MIC assay, S. aureus; format: cell-based; conditions: Staphylococcus aureus, 18 h, read-out: S. Aur. MIC
Protocol: as §1, §2

E. coli RNAP = E. coli RNAP (Escherichia coli, UniProt P0A8T7+P0A8V2); test: High throughput in vitro transcription (RNAP) assay; format: biochemical; conditions: 60 minutes incubation
Protocol: (I) High Throughput in vitro Transcription (RNAP) Assay
The reagents are added to the DMSO/compound with a Tomtec Quadra. The Quadra acts as 96-tip pipetman, combined with a movable base. The reagents and compounds are stored and used in 96-well polypropylene u-bottom microtiter plates.
The Quadra is run in backfill mode (filled with water). A total of […] of reagents must be added. This is divided into a 20 ml RNAP/Txn Buffer mix and a 25 ml DNA/NTP/water mix. The RNAP mix is added first to allow the drug a chance to interact with RNAP before RNAP interacts with DNA (this interaction lasts less than 5 seconds). The mixing of the reagents is done with a multivortexer after all reagents have been added (setting 5.5 for 90 seconds).
After incubation for 60 minutes, the reaction is stopped with 150 ml 10% TCA, which also precipitates the RNA. The RNA is allowed to sit a room temperature for approximately 15-45 minutes (until all plates have been stopped and the cell harvester has been set up).
The TCA precipitated RNA is transferred to double-thick glass filtermats using a Tomtec cell harvester. The wells of the microtiter plate are washed with 5% TCA and sucked through the same filtermat. Two additional washes with 5 % TCA solution are sufficient to reduce background counts.
The filters are then dried at 60° for 60 minutes. It is important to remove all of the liquid, or this may quench the scintillation fluid when it is added.
The dry filters are sealed into plastic bags with a heat-sealer. A hole is cut in one corner and 12 ml of "β-plate scintillant" is added to each bag.
When choosing a scintillation counting program on the Wallac Microb 1450, it is important to choose one which counts using the appropriate window for P^32. Each well is counted for 3 seconds. The data obtained is used to calculate an lC50 value.

Enterococcus faecium = test: MIC assay, Enterococcus faecium (FAE); format: cell-based; conditions: OD 595 nm after 18 hours
Protocol: as §1, §2

Psuedomonas aeruginosa = test: MIC assay, Psuedomonas aeruginosa (PS); format: cell-based; conditions: OD 595 nm after 18 hours
Protocol: as §1, §2

E. coli RNAP, sequence (P0A8V2 whole entry): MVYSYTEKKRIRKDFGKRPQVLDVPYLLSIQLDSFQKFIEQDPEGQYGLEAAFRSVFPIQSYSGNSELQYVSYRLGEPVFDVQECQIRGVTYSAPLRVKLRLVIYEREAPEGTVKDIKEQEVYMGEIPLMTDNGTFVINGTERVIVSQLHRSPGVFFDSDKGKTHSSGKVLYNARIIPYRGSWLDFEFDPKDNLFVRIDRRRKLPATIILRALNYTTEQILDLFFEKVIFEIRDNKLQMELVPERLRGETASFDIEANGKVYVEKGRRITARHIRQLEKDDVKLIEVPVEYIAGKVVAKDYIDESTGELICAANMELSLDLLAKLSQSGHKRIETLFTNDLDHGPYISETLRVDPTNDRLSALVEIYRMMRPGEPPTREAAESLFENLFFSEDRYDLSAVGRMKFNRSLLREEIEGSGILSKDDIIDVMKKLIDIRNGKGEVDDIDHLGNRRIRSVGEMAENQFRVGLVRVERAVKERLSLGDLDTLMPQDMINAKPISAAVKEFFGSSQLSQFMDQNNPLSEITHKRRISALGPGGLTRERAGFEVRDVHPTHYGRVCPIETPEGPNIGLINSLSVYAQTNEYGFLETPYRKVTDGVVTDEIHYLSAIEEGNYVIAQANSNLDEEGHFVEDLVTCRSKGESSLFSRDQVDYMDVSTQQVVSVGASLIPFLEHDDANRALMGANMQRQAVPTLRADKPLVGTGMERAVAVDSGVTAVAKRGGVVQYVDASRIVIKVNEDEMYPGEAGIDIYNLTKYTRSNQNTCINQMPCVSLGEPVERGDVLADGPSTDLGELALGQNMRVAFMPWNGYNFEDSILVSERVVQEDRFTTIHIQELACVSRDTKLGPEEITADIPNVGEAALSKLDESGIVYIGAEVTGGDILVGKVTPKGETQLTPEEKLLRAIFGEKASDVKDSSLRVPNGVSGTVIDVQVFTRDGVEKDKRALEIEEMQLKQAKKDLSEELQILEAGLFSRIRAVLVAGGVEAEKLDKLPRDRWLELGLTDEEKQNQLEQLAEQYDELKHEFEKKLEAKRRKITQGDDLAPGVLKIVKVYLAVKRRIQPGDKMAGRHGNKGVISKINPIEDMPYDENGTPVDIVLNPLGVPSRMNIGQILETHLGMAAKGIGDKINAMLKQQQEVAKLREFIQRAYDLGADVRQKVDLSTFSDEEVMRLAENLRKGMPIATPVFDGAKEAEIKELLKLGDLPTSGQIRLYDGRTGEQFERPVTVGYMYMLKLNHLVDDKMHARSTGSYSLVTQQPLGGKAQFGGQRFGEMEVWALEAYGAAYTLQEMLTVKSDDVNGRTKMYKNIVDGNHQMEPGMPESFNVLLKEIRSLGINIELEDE
E. coli RNAP, sequence (P0A8T7 whole entry): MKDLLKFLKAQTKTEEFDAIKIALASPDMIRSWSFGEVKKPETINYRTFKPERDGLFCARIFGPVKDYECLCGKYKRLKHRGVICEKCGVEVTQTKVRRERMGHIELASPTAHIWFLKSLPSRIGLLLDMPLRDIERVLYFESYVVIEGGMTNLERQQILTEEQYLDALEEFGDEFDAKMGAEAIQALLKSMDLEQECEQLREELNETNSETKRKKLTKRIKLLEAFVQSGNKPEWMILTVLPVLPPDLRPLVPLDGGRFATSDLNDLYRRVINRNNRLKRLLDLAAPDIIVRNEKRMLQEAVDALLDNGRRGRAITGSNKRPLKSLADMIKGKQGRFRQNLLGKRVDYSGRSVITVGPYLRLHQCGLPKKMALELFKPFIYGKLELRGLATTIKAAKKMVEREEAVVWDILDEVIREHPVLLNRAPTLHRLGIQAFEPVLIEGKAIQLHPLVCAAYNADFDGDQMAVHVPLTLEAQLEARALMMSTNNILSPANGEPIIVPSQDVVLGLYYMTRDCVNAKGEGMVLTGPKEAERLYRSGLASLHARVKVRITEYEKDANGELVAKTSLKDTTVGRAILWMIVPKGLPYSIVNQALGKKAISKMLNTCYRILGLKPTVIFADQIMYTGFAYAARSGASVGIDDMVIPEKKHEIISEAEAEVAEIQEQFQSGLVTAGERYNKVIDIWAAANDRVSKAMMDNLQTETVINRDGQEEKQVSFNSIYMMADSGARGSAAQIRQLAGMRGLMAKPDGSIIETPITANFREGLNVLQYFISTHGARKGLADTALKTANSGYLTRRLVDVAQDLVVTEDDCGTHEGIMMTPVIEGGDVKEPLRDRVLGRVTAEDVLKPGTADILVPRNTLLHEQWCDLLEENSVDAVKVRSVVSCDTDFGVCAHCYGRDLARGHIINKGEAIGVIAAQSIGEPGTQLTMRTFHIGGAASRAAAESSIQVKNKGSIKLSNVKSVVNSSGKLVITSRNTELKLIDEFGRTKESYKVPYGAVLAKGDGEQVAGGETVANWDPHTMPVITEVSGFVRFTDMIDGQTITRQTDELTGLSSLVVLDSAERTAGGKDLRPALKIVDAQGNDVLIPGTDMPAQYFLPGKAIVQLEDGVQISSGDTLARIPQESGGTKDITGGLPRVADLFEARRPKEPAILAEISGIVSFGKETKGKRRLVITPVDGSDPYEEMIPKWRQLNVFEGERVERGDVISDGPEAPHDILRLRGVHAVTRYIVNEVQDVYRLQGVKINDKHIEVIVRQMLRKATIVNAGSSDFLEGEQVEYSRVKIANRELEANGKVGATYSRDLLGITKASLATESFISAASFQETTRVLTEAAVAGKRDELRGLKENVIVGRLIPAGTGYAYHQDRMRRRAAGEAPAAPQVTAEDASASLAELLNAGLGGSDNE
E. coli RNAP, sequence (P0A7Z4 whole entry partner): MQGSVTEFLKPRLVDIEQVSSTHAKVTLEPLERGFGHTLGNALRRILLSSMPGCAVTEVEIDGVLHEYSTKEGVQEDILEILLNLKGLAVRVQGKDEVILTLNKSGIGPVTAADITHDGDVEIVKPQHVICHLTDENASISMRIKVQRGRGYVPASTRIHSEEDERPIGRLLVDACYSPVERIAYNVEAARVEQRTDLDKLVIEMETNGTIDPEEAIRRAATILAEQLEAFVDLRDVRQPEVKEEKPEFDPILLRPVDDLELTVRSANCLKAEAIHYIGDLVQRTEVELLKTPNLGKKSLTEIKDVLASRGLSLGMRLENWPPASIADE

Row | SMILES | MIC (Enterobacter cloacae) | MIC (S. aureus) | pIC50 (E. coli RNAP) | MIC (Enterococcus faecium) | MIC (Psuedomonas aeruginosa)
1 | CS(=O)(=O)c1ccc(NN=C(C#N)C(=O)c2ccc(Cl)cc2)cc1 [Example 1] | < 0.5 µM | > 10 µM | > 6.30 | > 10 µM | > 10 µM
2 | CS(=O)(=O)C(=NNc1ccc([N+](=O)[O-])cc1)C(=O)c1ccc(Cl)cc1 [Example 2] | 0.5 to 10 µM (≈ 0.191 to 3.82 µg/mL) | – | 5.00 to 6.30 | > 10 µM | > 10 µM
3 | CC(=O)N(N=C(C#N)C(=O)c1ccc(Cl)cc1)c1ccc([N+](=O)[O-])cc1 [Example 3] | 0.5 to 10 µM (≈ 0.185 to 3.71 µg/mL) | > 10 µM | 5.00 to 6.30 | > 10 µM | > 10 µM
4 | CSc1ccc(NN=C(C#N)C(=O)c2ccc(Cl)cc2)cc1 [Example 4] | 0.5 to 10 µM (≈ 0.165 to 3.3 µg/mL) | > 10 µM | 5.00 to 6.30 | > 10 µM | > 10 µM
5 | C[S+]([O-])c1ccc(NN=C(C#N)C(=O)c2ccc(Cl)cc2)cc1 (stereo not shown) [Example 5] | 0.5 to 10 µM (≈ 0.173 to 3.46 µg/mL) | > 10 µM | 5.00 to 6.30 | > 10 µM | > 10 µM
6 | N#CC(=NNc1ccc([N+](=O)[O-])cc1)C(=O)c1ccc(-c2ccccc2)cc1 [Example 6] | 0.5 to 10 µM (≈ 0.185 to 3.7 µg/mL) | > 10 µM | 5.00 to 6.30 | 1 µM (≈ 0.37 µg/mL) | > 10 µM
7 | CS(=O)(=O)Nc1ccc(NN=C(C#N)C(=O)c2ccc(Cl)cc2)cc1 [Example 7] | 0.5 to 10 µM (≈ 0.188 to 3.77 µg/mL) | – | 5.00 to 6.30 | > 10 µM | > 10 µM
8 | N#CC(=NNc1ccc([N+](=O)[O-])cc1)C(=O)c1ccc(Cl)nc1 [Example 8] | – | – | 5.00 to 6.30 | – | –
9 | N#CC(=NNc1ccc(C(=O)O)cc1)C(=O)c1ccc(Cl)cc1 [Example 9] | > 10 µM | – | < 5.00 | > 10 µM | > 10 µM
10 | CC(=O)Nc1ccc(NN=C(C#N)C(=O)c2ccc(Cl)cc2)cc1 [Example 10] | > 10 µM | – | < 5.00 | > 10 µM | > 10 µM
11 | CS(=O)(=O)c1ccc(NN=C(C#N)C(=O)c2ccc(-c3ccccc3)cc2)cc1 [Example 11] | > 10 µM | – | < 5.00 | > 10 µM | > 10 µM
12 | N#CC(=NNc1ccc(Cl)cc1)C(=O)c1ccc(-c2ccccc2)cc1 [Example 13] | > 10 µM | > 10 µM | < 5.00 | > 10 µM | > 10 µM
13 | CC(=O)N(N=C(C#N)C(=O)c1ccc(Cl)cc1)c1ccc(Cl)cc1 [Example 14] | 0.5 to 10 µM (≈ 0.18 to 3.6 µg/mL) | > 10 µM | < 5.00 | > 10 µM | > 10 µM
14 | Cc1c(C(=O)C(C#N)=NNc2ccc([N+](=O)[O-])cc2)sc2ccc(Cl)cc12 [Example 15] | < 0.5 µM | > 10 µM | > 6.30 | 0.5 to 10 µM (≈ 0.199 to 3.99 µg/mL) | > 10 µM
15 | Cc1c(C(=O)C(C#N)=NNc2ccc(C(C)C)cc2)sc2ccc(Cl)cc12 [Example 16] | 0.5 to 10 µM (≈ 0.198 to 3.96 µg/mL) | > 10 µM | 5.00 to 6.30 | > 10 µM | > 10 µM
16 | N#CC(=NNc1ccc([N+](=O)[O-])cc1)C(=O)c1ccc(Cl)cc1 [Example 17, 2-(4-nitrophenyl)hydrazono-3-oxo-3-(4-chlorophenyl)propionitrile] | < 0.5 µM | 0.5 to 10 µM (≈ 0.164 to 3.29 µg/mL) | > 6.30 | < 0.5 µM | > 10 µM
17 | N#CC(=NNc1ccc(OC(F)(F)F)cc1)C(=O)c1ccc(Cl)cc1 [Example 18] | 0.5 to 10 µM (≈ 0.184 to 3.68 µg/mL) | 0.5 to 10 µM (≈ 0.184 to 3.68 µg/mL) | 5.00 to 6.30 | 0.5 to 10 µM (≈ 0.184 to 3.68 µg/mL) | > 10 µM
18 | N#CC(=NNc1ccc(Cl)cc1)C(=O)c1ccc(Cl)cc1 [Example 19] | 0.5 to 10 µM (≈ 0.159 to 3.18 µg/mL) | > 10 µM | 5.00 to 6.30 | > 10 µM | > 10 µM
19 | N#CC(=NNc1cc(C(F)(F)F)cc(C(F)(F)F)c1)C(=O)c1ccccc1 [Example 20] | 0.5 to 10 µM (≈ 0.193 to 3.85 µg/mL) | 0.5 to 10 µM (≈ 0.193 to 3.85 µg/mL) | 5.00 to 6.30 | > 10 µM | > 10 µM
20 | N#CC(=NNc1ccc(F)cc1)C(=O)c1ccc(OC(F)(F)F)cc1 [Example 21] | 0.5 to 10 µM (≈ 0.176 to 3.51 µg/mL) | 0.5 to 10 µM (≈ 0.176 to 3.51 µg/mL) | 5.00 to 6.30 | > 10 µM | > 10 µM
21 | N#CC(=NNc1ccc([N+](=O)[O-])cc1)C(=O)c1cccc(Cl)c1 [Example 22] | > 10 µM | – | < 5.00 | > 10 µM | > 10 µM
22 | N#CC(=NNc1ccc([N+](=O)[O-])cc1)C(=O)c1ccccc1 [Example 23] | 0.5 to 10 µM (≈ 0.147 to 2.94 µg/mL) | 0.5 to 10 µM (≈ 0.147 to 2.94 µg/mL) | < 5.00 | > 10 µM | > 10 µM
